Measured values as given in US5541159A, “Calcitonin derivatives” (Sandoz Ltd., priority 1988, dated 1996).

System: ovulation
Assay: inhibition of ovulation in female rats (M. Marko and E. Fluckiger)
Type: in vivo
Conditions: s.c.
Experimental: The LHRH antagonists of the invention, in particular the compounds of formula XI inhibit luteinizing hormone secretion, e.g. as indicated by an inhibition of ovulation in animals. This test is effected according to M. Marko and E. Fluckiger, Experientia 30, […] (1974).
Adult female rats of the Ivanovas Wistar strain (Sprague Dawley, Iva: SDIV, 200-250 g) are kept under standard conditions: 14 h light (from 0.400 to 18.00 hours); 24° C.; 55-60% rel. humidity; food and water ad libitum. Animals with regular 4-day cycles are injected on proestrus day at 13.00 h with the compound to be tested, subcutaneously or by the oral route. The next day at 9:00 a.m. the rats are sacrified and ova counted on both Fallopian tubes with the aid of a dissecting microscope. Only when no eggs are found is ovulation considered to be inhibited. The mean number of eggs per ovulating rat in each treatment groups is also determined.

[N-Ac-DPhe(Cl)^1,2, DTrp^3,DAla^10 ]-LHRH
ED50 inhibition of ovulation: 0.08 mg/kg
